The source of these data is publication PMC12910498 (ACS pharmacology & translational science, 2026).

The target in series [1] is T1, human D4R (Homo sapiens, UniProt P21917).
T1 sequence (P21917 1-419): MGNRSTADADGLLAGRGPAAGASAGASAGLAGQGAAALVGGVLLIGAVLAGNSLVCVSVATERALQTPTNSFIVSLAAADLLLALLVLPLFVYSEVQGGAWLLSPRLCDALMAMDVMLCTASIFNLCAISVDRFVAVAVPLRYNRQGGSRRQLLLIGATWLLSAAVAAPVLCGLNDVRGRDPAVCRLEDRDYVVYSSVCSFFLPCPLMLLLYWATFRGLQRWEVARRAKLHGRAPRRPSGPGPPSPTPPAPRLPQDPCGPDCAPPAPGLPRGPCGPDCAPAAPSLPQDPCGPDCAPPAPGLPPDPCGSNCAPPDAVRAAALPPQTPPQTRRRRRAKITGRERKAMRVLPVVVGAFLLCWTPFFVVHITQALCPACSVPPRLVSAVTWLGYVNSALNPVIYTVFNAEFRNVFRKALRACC

The target in the next series is human D3R (Homo sapiens, UniProt P35462). The series can be described thus: biochemical.
The target in another series is human D2LR (Homo sapiens, UniProt P14416). As to the kind of experiment: biochemical.
Series [2] concerns the target T1, human D4R. The series can be described thus: [3H]N-methylspiperone radioligand competition binding, hD4R membranes. On the technique in general: Displacement assays read how much labelled ligand stays bound in the presence of the test substance.
The next series addresses human D2R long isoform (Homo sapiens, UniProt P14416). As to the kind of experiment: DiscoverX PathHunter β-arrestin recruitment assay, D2R.
The target of a further series is T2, D5 (Homo sapiens, UniProt P21918).
T2 construct: Psychoactive Drug Screening Program (PDSP)
As to the kind of experiment: PDSP primary screen, D5. It counts as binding. The following applies: 10 µM compound. The source says: Receptor Primary Secondary Primary Secondary Primary Secondary Primary Secondary screen assay screen assay screen assay screen assay […]
inhibition in primary assessment.

Series [3] is described as follows: Pharmacokinetics study in rats (plasma and brain). The class given is in vivo, Sprague−Dawley rats. The following applies: rat, 10 mg/kg IP. Here is the method: Given their adequate in vitro stability profiles, we next evaluated the in vivo pharmacokinetic profiles of 14, 15, 17, and 18 in rats. Sprague−Dawley rats were dosed with 5 mg/kg (14, 15, 17) or 10 mg/kg (18), i.p., and plasma and brain levels of each drug were measured 0−6 h postdose.
All animal experiments were performed following the protocols evaluated and approved by the Animal Care and Use Committee at Johns Hopkins University (Ethics Approval Number: RA24M403). Pharmacokinetic studies in Sprague−Dawley (SD) rats were conducted according to protocols approved. SD rats obtained from Harlan were maintained on a 12 h light−dark cycle with ad libitum access to food and water. Test compound was administered via i.p. injection at a dose of 10 mg/kg (100% saline vehicle, 10 mL/kg volume). The rats were sacrificed at specified time points (0.25, 0.5 h, 1, 2, 4, and 6 h) post drug administration. For the collection of plasma and brain tissue, animals were euthanized with CO2, and blood samples were collected in heparinized microtubes by cardiac puncture. Brains were dissected and immediately flash-frozen (−80 °C). Blood samples were spun at 2000g for 15 min, and plasma was removed and stored at −80 °C until analysis (as described below).
Quantitation of triazole analogs 14, 15, 17, and 18 was performed using liquid chromatography with tandem mass spectrometry (LC/MS-MS) methods. Briefly, calibration standards were prepared using respective tissue (naïve plasma and brain) with additions of the test compounds. For quantifying the test compounds in the pharmacokinetic samples, plasma samples (20 μL) were processed using a single liquid extraction method by addition of 100 μL of acetonitrile containing internal standard (losartan: 0.5 μM), followed by vortex-mixing for 30 s and then centrifugation at 10,000g for 10 min at 4 °C. Brain tissues were diluted 1:5 w/v with acetonitrile containing losartan (0.5 μm) and homogenized, followed by vortex-mixing and centrifugation at 10,000g for 10 min at 4 °C. A 50 μL aliquot of the supernatant was diluted with 50 μL of water and transferred to 250 μL polypropylene autosampler vials sealed with Teflon caps. Two μL of the sample was injected into the LC/MS/MS system for analysis. Chromatographic analysis was performed using an Accela ultra high-performance system consisting of an analytical pump and an autosampler coupled with a TSQ Vantage mass spectrometer. […] The mobile phase consisted of 0.1% formic acid in acetonitrile and 0.1% formic acid in water with gradient elution, starting with 10% organic phase (from 0 to 1 min) linearly increasing to 95% (from 1 to 2 min), and re-equilibrating to 10% by 3 min. The total run time for each analyte was 3.5 min. Pumps were operated at a flow rate of 0.4 mL/min. […] Plasma concentrations (nmol/mL) as well as brain tissue concentrations (nmol/g) were determined and plots of mean plasma concentration versus time were constructed. Noncompartmental analysis modules in Phoenix WinNonlin version 7.0 (Certara USA, Inc., Princeton, NJ) were used to quantify exposures (AUC0−t) and half-life (t1/2).

As usually defined, the EC50 is the concentration at which the effect is half-maximal. A higher EC50 goes with a less potent agent. By IC50 is commonly meant the concentration that gives 50% inhibition. A word on the Emax: it is the size of the effect at its maximum, as opposed to the concentration needed. In general, Ki refers to a dissociation constant, usually derived from enzyme kinetics or from competition with a known ligand. The low end stands for higher affinity, the high end for lower affinity. What is called inhibition is the percentage by which the read-out fell short of the control. Usually half-life stands for how long it takes for the measured level to halve. Usually Tmax stands for the time at which the peak concentration occurs. The AUC is the area under the concentration-time curve, a measure of exposure. As a reminder, the Cmax is the highest concentration seen after dosing.

Structures are written as SMILES. Where two headings read alike, the source gives them in different places. Some results are limits rather than exact numbers.

Sequence of human D2R long isoform (P14416 whole entry, canonical isoform): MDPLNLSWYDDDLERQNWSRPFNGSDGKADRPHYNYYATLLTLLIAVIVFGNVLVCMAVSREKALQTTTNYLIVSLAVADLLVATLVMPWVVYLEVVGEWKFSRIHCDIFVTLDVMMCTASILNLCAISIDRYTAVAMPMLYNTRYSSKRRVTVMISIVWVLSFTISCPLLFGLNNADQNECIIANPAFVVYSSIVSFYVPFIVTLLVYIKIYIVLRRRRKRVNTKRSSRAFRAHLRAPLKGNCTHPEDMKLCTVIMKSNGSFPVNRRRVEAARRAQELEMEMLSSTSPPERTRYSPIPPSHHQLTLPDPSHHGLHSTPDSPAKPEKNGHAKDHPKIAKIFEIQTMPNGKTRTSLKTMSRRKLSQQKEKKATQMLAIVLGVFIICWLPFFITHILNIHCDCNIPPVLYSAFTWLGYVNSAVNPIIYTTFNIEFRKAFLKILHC
Sequence of human D2LR (P14416 whole entry): as the sequence (P14416 whole entry, canonical isoform) above
T2 sequence (P21918 whole entry): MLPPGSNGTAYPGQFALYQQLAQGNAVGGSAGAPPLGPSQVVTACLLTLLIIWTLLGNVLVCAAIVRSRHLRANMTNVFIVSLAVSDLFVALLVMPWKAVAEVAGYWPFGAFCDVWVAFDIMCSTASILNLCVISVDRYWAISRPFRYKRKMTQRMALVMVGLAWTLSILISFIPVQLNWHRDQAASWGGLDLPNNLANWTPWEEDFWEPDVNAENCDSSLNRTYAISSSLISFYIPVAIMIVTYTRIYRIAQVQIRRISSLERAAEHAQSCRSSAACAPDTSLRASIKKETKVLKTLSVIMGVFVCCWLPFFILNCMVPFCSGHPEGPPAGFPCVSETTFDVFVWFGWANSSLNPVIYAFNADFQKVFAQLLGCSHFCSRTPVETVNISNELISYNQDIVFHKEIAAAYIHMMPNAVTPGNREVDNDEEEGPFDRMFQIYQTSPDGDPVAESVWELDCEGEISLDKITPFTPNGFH
Sequence of human D3R (P35462 whole entry): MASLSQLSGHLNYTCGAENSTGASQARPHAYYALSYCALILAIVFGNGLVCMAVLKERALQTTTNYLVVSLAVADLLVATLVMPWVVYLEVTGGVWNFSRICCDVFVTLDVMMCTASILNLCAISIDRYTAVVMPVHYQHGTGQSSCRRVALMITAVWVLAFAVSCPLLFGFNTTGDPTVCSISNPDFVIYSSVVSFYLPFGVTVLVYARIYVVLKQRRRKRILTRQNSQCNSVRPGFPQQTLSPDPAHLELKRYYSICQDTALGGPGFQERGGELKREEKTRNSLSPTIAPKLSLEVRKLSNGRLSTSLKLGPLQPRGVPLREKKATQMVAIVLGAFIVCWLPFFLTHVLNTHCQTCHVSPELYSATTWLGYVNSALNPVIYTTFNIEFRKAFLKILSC

The molecule `Cc1cccc(-n2cc(CN3CCN(c4cccc5ccccc45)CC3)nn2)c1` [Compound 18, 1-(Naphthalen-1-yl)-4-((1-(m-tolyl)-1H-1,2,3-triazol-4-yl)methyl)piperazine] registered an EC50 at human D4R [1] of 2.14 ± 1.07 µM. Also, the figures for the IC50 on human D4R [1] and on human D2R long isoform were 0.904 ± 0.102 µM and 4.7 ± 1.1 µM, respectively. On human D4R [1] (cAMP, antagonist mode, 10 μM forskolin and 10 nM dopamine, normalized to spiperone), the “D4R Ant. (%)” value stood at 72 ± 5%. The Emax at human D4R [1] (read-out: D4R Emax (%)) came out at 24 ± 7%. The Ki worked out at 10.8 µM at human D3R, 6.54 ± 5.37 µM on human D2LR and 0.00433 ± 0.00102 µM at human D4R [2]. Besides, on human D4R [2] (ratio of Ki values), the “Selectivity D2R/D4R” value was 1510. In addition, the “Selectivity D3R/D4R” value at human D4R [2] (ratio of Ki values) is reported as 2504. At human D2R long isoform (antagonist mode, EC80 dopamine (1 μM), normalized to spiperone), the “D2R Ant (%)” value is 87.8 ± 26.7%. The molecule further returned an inhibition at 10 µM at D5 of 25.7%. Also, in series [3] (Sprague-Dawley, brain and plasma, ip, 10 mg/kg, AUC brain/plasma, read-out: brain: Plasma ratio), the Kp is more than 2.6. In addition, the half-life in series [3] (Sprague-Dawley, brain, ip, 10 mg/kg, brain, read-out: half-life (h) brain (converted)) is 2.46 h; in series [3] (Sprague-Dawley, plasma, ip, 10 mg/kg, plasma, read-out: half-life (h) plasma (converted)), 2.54 h; in series [3] (Sprague-Dawley, plasma, ip, 10 mg/kg, tissue not specified, read-out: half-life (converted)), approximately 2.5 h. The time to peak (Tmax) in series [3] (Sprague-Dawley, brain, read-out: Tmax (h) brain) worked out at 0.5 h; in series [3] (Sprague-Dawley, plasma, read-out: Tmax (h) plasma), 0.5 h. Also, in series [3] (Sprague-Dawley, plasma), the AUC turned out to be 1.36 ± 0.29 µM·h. In series [3] (Sprague-Dawley, plasma), this molecule showed a Cmax of 700 ± 90 nM. The “brain: Plasma ratio” value in series [3] (AUC brain/plasma, 10 mg/kg) is given as 2.63. In series [3] (brain), this molecule registered an AUC brain of 3.57 ± 0.77 nmol·h/g. Further, in series [3] (brain), the Cmax brain is given as 2.08 ± 0.20 nmol/g. In addition, the “peak in vivo brain concentrations expected” value in series [3] (from brain Cmax) is listed as “greater than 2.0 μM”.
